Experimental data taken from US20150045410A1, “METHOD OF REGULATING CFTR EXPRESSION AND PROCESSING” (University of Iowa Research Foundation, priority 2012, published 2015).

Biological target: T1, CFTR-ΔF508 (Homo sapiens, UniProt P13569, DEL508-508)
T1 construct: expressed in transfected cells
Test: Cell surface ELISA (anti-HA) in HeLa cells stably expressing HA-tagged CFTR-ΔF508
Assay type: cell-based
Details: HeLa-ΔF508-CFTR-HA cells treated daily with drugs, 72 hr post-treatment, vs DMSO (FIG. 28, 29)

T1 sequence (P13569 with tags, fused parts or gaps DEL508-508): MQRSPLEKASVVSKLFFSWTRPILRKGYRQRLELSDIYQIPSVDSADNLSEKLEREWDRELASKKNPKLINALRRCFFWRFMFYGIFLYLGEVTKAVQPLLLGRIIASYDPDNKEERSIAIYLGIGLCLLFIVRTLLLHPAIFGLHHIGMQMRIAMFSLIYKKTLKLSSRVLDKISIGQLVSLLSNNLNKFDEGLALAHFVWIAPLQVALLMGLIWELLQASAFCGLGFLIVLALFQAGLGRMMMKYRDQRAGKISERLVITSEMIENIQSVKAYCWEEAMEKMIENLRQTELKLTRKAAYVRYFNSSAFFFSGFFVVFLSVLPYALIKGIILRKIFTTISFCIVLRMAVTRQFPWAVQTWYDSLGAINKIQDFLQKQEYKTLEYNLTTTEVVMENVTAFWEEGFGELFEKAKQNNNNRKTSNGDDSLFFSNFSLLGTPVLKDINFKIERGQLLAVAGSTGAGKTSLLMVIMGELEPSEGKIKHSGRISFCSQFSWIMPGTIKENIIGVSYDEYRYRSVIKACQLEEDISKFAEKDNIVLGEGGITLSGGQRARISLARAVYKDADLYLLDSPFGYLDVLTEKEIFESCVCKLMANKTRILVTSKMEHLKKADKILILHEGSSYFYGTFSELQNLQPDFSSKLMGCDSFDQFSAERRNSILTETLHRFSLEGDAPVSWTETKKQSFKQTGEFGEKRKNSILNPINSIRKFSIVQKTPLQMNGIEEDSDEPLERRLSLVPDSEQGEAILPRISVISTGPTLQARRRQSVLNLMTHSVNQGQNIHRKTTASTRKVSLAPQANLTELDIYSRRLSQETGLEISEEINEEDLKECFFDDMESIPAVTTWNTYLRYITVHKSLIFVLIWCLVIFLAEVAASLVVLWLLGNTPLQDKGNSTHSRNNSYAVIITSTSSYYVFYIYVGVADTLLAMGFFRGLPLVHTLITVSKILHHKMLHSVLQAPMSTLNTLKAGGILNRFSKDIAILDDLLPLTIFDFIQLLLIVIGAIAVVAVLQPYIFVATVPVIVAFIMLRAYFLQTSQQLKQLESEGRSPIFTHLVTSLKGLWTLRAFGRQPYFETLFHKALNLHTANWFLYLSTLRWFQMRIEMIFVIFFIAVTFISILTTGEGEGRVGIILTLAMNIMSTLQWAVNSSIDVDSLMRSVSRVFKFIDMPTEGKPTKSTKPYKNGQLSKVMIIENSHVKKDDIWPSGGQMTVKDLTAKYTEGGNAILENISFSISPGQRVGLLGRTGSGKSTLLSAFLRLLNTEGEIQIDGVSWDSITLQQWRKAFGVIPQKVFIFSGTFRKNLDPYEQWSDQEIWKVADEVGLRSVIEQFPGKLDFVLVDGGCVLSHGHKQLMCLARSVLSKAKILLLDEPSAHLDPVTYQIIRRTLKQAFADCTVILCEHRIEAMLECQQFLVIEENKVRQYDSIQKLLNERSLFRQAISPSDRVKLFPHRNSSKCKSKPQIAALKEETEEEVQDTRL

Compound | surface display of ΔF508-CFTR (live cell-surface ELISA) | surface display of ΔF508-CFTR (live cell-surface ELISA) (listed as pyridostigmine)
CN(C)C(=O)Oc1cccc([N+](C)(C)C)c1 [Neostigmine, 3-{[(dimethylamino)carbonyl]oxy}-N,N,N-trimethylbenzenaminium] | increased | 
CN(C)C(=O)Oc1ccc[n+](C)c1 [Pyridostigmine] | rescues ΔF508-CFTR trafficking | increased
